From US8124598B2 (priority 2006, dated 2012)

Tests used:
[1] = tested on: women with severe chronic PTSD; assay: Five case reports: 7-keto DHEA in women with treatment-resistant PTSD (Example 1); format: in vivo, human
Excerpt: The following case reports are of 5 women with severe chronic PTSD resulting from severe early abuse who continued to be highly symptomatic despite receiving extensive psychotherapy and years of psychopharmacologic treatment. […] The improvements in these symptoms not only were subjective and objective, but also manifested in significant and rapid benefits in vocational and interpersonal functioning.
Ms. […] A. was so fearful and avoidant they would miss many sessions. They were so fragile and frightened they would frequently dissociate during sessions and forget what had been discussed. […] After the first week of 7-keto DHEA therapy, Ms. […] They reported feeling “more organized, more present” and being able to enjoy socializing “with a significant lessening of constant fear and self-criticism.”
The outcome of this case series offers evidence that 7-keto DHEA is beneficial in treating patients with histories of severe early trauma and persistent refractory PTSD.

[2] = tested on: male and female patients with PTSD, panic disorder, anxiety, depression; assay: Sixteen case reports: oral 7-keto DHEA in PTSD, panic disorder, anxiety, depression and other conditions (Example 2); format: in vivo, human
Method: In all the patient reports that follow, 7-keto DHEA was administered orally.

[3] = tested on: patients with treatment-resistant PTSD, panic disorder, anxiety, depression and other conditions; assay: Eight case reports: 7-keto DHEA in treatment-resistant patients (Example 3); format: in vivo, human
trauma victims [4] = assay: Trauma victims after a terrorist attack, 7-keto DHEA vs placebo (Example 4); format: in vivo, human; settings: 50 or 75 mg/day by mouth for 2 to 6 weeks immediately following the incident
[5] = tested on: trauma victims with PTSD or depression; assay: Trauma victims with PTSD or depression, 7-keto DHEA vs placebo (Example 5); format: in vivo, human; settings: 75 mg/day by mouth for 1 to 6 months
trauma victims [6] = assay: Trauma victims with or without PTSD or depression, stress-related physiologic measures (Example 6); format: in vivo, human; settings: 25-75 mg/day by mouth for 1 to 6 months
healthy male volunteers = settings: cited from earlier work
[7] = tested on: midlife major and minor depression or dysthymia; settings: case reports; cited from earlier work

CC(=O)OC1CC[C@@]2(C)C(=CC(=O)[C@@H]3[C@@H]2CC[C@]2(C)C(=O)CC[C@@H]32)C1 (some centres unmarked) [7-keto DHEA, 3-acetyl-7-oxo-dehydroepiandrosterone]
clinical response ([1]; Case 1 (PTSD, bipolar II, dissociative identity disorder), 25 mg/day, after the first week, adjunct): stopped feeling so fearful, stopped dissociating, was much more communicative, and related better
libido ([1]; Case 1, 50 mg/day): went from having no libido to some libido
clinical response ([1]; Case 1, after 3 weeks on 50 mg/day): stopped having nightmares, had much better concentration, functioned better at work and in social situations, had more stable mood
clinical response ([1]; Case 1, dosage increased to 50 mg daily): even further improvement
clinical response ([1]; Case 2 (PTSD, bipolar disorder NOS), 25 mg daily, within a few days, adjunct): feeling much better
vocational functioning ([1]; Case 2, 25 mg daily, within 2 weeks): felt calm and centered enough to return to work
clinical response ([1]; Case 3 (PTSD, major depressive disorder), 25 mg daily, after 4 days, adjunct): felt better and was no longer getting anxious and overwhelmed by stressful events
nightmares and flashbacks ([1]; Case 3, 25 mg daily, seven days after start): fewer nightmares and flashbacks
clinical response ([1]; Case 4 (PTSD with dissociative identity disorder), 50 mg for 6 weeks, adjunct): some improvement in daily functioning and more positive affect
clinical response ([1]; Case 4, 100 mg for 6 weeks): became much more social
clinical response ([1]; Case 4, 150 mg daily): continued to improve
clinical response ([1]; Case 5 (anxiety, PTSD, dissociative identity disorder, panic attacks), 25 mg daily raised to 50 and 75 mg daily, single agent): feeling calmer and being better able to deal with the stress
reduction in trauma and affective symptoms ([1]; all 5 treatment-resistant women, after starting 7-keto DHEA): rapid and substantial reduction in their trauma and affective symptoms
negative side effects ([1]; the 5 patients on 7-keto DHEA): None of the 5 patients on 7-keto DHEA treatment reported any negative side effects
clinical response ([2]; Patient 1, PTSD and Generalized Anxiety Disorder, 25 mg/day oral): less anxiety within 2 days
clinical response ([2]; Patient 2, PTSD, chronic anxiety, Major depression, 50 mg/day oral): less anxiety and depression
clinical response ([2]; Patient 3, Panic Disorder and Generalized Anxiety Disorder, 25 mg/day oral): less anxiety and panic
clinical response ([2]; Patient 4, PTSD, Generalized Anxiety Disorder, Bipolar Depression, 25 mg/day oral): less anxious and depressed
clinical response ([2]; Patient 5, Bipolar Depression and PTSD, 25 mg/day oral): less anxious and depressed
clinical response ([2]; Patient 6, Tourette's Syndrome, chronic dysthymia, anxiety, 50 mg/day oral): calmer and in a better mood
clinical response ([2]; Patient 7, Ankylosing Spondylitis, chronic pain, depression, 25 mg/day oral): calmer and less depressed
clinical response ([2]; Patient 8, Dissociative Disorder, PTSD, Major Depression, Dependent Personality Disorder, 25 mg/day oral): less anxiety and dissociation
clinical response ([2]; Patient 9, PTSD, Generalized Anxiety Disorder, Major Depression, 25 to 50 mg/day oral): less anxious and depressed
clinical response ([2]; Patient 10, Bipolar Depression and PTSD, 25 mg/day oral): less anxious and depressed
clinical response ([2]; Patient 11, Bipolar Depression and PTSD, 25 mg/day oral): less anxious
clinical response ([2]; Patient 12, Bipolar Depression and PTSD, 25 mg/day oral): less anxious
clinical response ([2]; Patient 13, PTSD and Major Depression, 50 mg/day oral): less depressed and anxious
clinical response ([2]; Patient 14, Adult ADHD, Bereavement, PTSD, 25 mg/day oral): less irritable and anxious
clinical response ([2]; Patient 15, Generalized Anxiety Disorder, 25 mg/day oral): lower anxiety and better mood
clinical response ([2]; Patient 16, Generalized Anxiety Disorder and Fibromyalgia, 25 mg/day oral): lower anxiety and irritability
time the patient remained well ([3]; Example 3 patient 7, 200 mg/day): 9 months
time the patient remained well ([3]; Example 3 patients 3 and 6 on 7-keto DHEA (50; 100 mg/day)): about 1 year
clinical response ([3]; Patient 1, lifelong depression, PMDD, sexual PTSD, 75 mg/day): improved
clinical response ([3]; Patient 2, lifelong anxiety, 4 years of depression, 50 mg/day): very effective
clinical response ([3]; Patient 3, GAD, panic disorder, fibromyalgia/CFS, 50 mg/day): improvement in their symptoms
clinical response ([3]; Patient 4, severe dissociative identity disorder, fibromyalgia, Bipolar Disorder, 200 mg/day): has been well for a year and is able to read and function
clinical response ([3]; Patient 5, PTSD and bipolar 2 disorder, 50 mg/day in summer, 100 mg/day in winter): very effective
clinical response ([3]; Patient 6, failed most antidepressants, atypical antipsychotics and ECT, 100 mg/day): tremendous positive effects in 1 week
clinical response after partial relapse ([3]; Patient 6, dosage increased from 100 mg/day to 300 mg/day after stressful episode (breast cancer)): good results
clinical response ([3]; Patient 7, lifelong depression, sexual PTSD, fibromyalgia/CFS, 200 mg/day): significant benefit
PTSD, depression and stress-related emotional conditions compared to placebo (trauma victims [4]): reduction in PTSD, depression and stress-related emotional conditions
PTSD, depression and stress-related emotional conditions compared to placebo [5]: reduction in their PTSD depression and stress-related emotional conditions
stress-related physiologic measures (pain, headaches, hypertension, alcohol and substance abuse, work days lost to illness, cardiac events) compared to placebo (trauma victims [6]; patients with PTSD or depression): reduction in one or more stress-related physiologic measures
stress-related physiologic measures (pain, headaches, hypertension, alcohol and substance abuse, work days lost to illness, cardiac events) compared to placebo (trauma victims [6]; patients without PTSD or depression): reduction in one or more stress-related physiologic measures
differences in clinical laboratory values, minor adverse experiences, vital signs, blood chemistry, urinalysis between treatment and placebo groups (healthy male volunteers; healthy male volunteers): no differences
side effects or changes in clinical laboratory values (healthy male volunteers; study by Davidson et al.): no side effects or changes in clinical laboratory values
induced mania [7]: no case reports of induced mania
